Source: ChEMBL document CHEMBL1159055, “Oxime carbamate--discovery of a series of novel FAAH inhibitors” (Bioorg Med Chem Lett, 2010)
Activity calls are given as the source filed them. The rule behind the calls is not given here.

Tests used:
[1] = molecular target: T1, Fatty-acid amide hydrolase 1 (Homo sapiens, UniProt O00519); assay: Inhibition of human FAAH expressed in human H4 cells; format: cell-based
T1 sequence (O00519 whole entry): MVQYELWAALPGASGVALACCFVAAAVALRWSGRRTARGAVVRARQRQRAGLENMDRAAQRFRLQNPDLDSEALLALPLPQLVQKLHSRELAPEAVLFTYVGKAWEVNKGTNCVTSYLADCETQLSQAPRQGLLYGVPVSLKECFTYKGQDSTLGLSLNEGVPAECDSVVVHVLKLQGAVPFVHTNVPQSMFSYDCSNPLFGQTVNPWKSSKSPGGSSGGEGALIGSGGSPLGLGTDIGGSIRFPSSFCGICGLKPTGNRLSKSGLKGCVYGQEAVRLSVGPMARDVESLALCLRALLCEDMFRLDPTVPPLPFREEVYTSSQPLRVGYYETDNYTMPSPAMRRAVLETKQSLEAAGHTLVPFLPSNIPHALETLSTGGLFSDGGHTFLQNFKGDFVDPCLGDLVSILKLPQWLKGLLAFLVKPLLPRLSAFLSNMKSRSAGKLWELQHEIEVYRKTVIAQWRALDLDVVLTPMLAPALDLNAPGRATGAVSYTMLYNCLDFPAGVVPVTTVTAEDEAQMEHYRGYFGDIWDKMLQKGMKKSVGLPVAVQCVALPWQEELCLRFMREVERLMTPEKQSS

Rattus norvegicus [2] = assay: Antinociceptive activity in iv dosed Sprague-Dawley rat assessed inhibition of thermal stimulus-induced hind paw withdrawal after 32 mins in presence of anandamide; format: functional, organism-based
Rattus norvegicus [3] = assay: Antinociceptive activity in Sprague-Dawley rat assessed inhibition of thermal stimulus-induced hind paw withdrawal at 1 mg/kg, iv after 32 mins; format: functional, organism-based; parameters: dose 1 mg/kg
Rattus norvegicus [4] = assay: Antinociceptive activity in Sprague-Dawley rat assessed inhibition of thermal stimulus-induced hind paw withdrawal at 10 mg/kg, iv after 32 mins; format: functional, organism-based; parameters: dose 10 mg/kg
[5] = molecular target: T1, Fatty-acid amide hydrolase 1; assay: Competitive inhibition of human FAAH expressed in human H4 cells; format: cell-based
[6] = molecular target: T2, Fatty-acid amide hydrolase 1 (Homo sapiens) (UniProt O00519); assay: Inhibition of human FAAH-mediated anandamide hydrolysis expressed in human H4 cells assessed as reduction in initial reaction rate at 5 nM by fluorescence assay relative to vehicle control; format: cell-based; parameters: scale not given: the % may be the effect or the level left
T2 sequence (whole entry): T1 sequence (O00519 whole entry)

| SMILES | IC50 [1] [nM] | other results |
| --- | --- | --- |
| CCCCOc1ccc(C(CC)NC(=O)Oc2ccccc2)cc1 (stereo not drawn) | 12 | – |
| CCCCCCCOc1ccc(NC(=O)Oc2ccccc2F)cc1 | 28 | – |
| O=C(Nc1ccc(Oc2ccccc2)cc1)Oc1ccccc1F | 1300 | – |
| CCCCCCOc1ccc(NC(=O)O/N=C/c2cccnc2)cc1 | 8.3 | – |
| CCCCCCCCCCCCOc1ccc(NC(=O)Oc2ccccc2)cc1 | 1.8 | – |
| CCCCCCCCCCCOc1ccc(NC(=O)Oc2ccccc2F)cc1 | 15 | – |
| CCCCOc1ccc(CNC(=O)ON=C(C)C)cc1 | 570 | – |
| CCCCOc1ccc(CNC(=O)Oc2ccc(F)cc2)cc1 | 4.6 | – |
| CCCCCCCCCOc1ccc(NC(=O)ON=C(C)C)cc1 | 2.1 | – |
| CCCCOc1ccc(C(CC)NC(=O)Oc2ccc(F)cc2)cc1 (stereo not drawn) | 12 | – |
| CCCCCOc1ccc(NC(=O)O/N=C/c2ccccc2)cc1 | 3.5 | – |
| CCCCCOc1ccc(NC(=O)O/N=C/c2ccc(F)cc2)cc1 | 1.8 | – |
| CCCCCCCOc1ccc(NC(=O)ON=C(C)C)cc1 | 8.4 | – |
| CCc1ccc(-c2ccc(NC(=O)Oc3ccccc3F)cc2)cc1 | 810 | – |
| CCCCOc1ccc(NC(=O)ON=C(C)C)cc1OC | 11000 | – |
| CCCCOc1ccc(C(CC)NC(=O)Oc2cccc(C(F)(F)F)c2)cc1 (stereo not drawn) | 51 | – |
| CCCCCCOc1ccc(NC(=O)ON=C(C)C)cc1 | 18 | – |
| CCCOc1ccc(NC(=O)O/N=C/c2ccccc2)cc1 | 9.3 | – |
| CCCCOc1ccc(CNC(=O)Oc2cccnc2)cc1 | 6.1 | – |
| CCCCOc1ccc(CNC(=O)Oc2ccc(F)cc2F)cc1 | 8.7 | – |
| CCCCCOc1ccc(NC(=O)ON=C(C)C)cc1 | 28 | – |
| CCCCOc1cccc(NC(=O)ON=C(C)C)c1 | 6300 | – |
| CCCCCCCCCCOc1ccc(NC(=O)O/N=C/c2ccccc2)cc1 | 0.35 | – |
| CCCCOc1ccc(C(CC)NC(=O)Oc2cccc(N(C)C)c2)cc1 (stereo not drawn) | 54 | – |
| CCOc1ccc(NC(=O)O/N=C/c2ccc(F)cc2)cc1 | 46 | – |
| CCCCCCCCCOc1ccc(NC(=O)O/N=C/c2cccnc2)cc1 | 0.65 | – |

| SMILES | IC50 [1] [nM] | other results |
| --- | --- | --- |
| CCCCCCCCOc1ccc(NC(=O)Oc2ccccc2F)cc1 | 19 | – |
| CCCCOc1ccc(NC(=O)O/N=C/c2ccc(F)cc2)cc1 | 2.2 | Activity (Rattus norvegicus [2]): Dose-dependent effect; Activity (Rattus norvegicus [3]): inactive; Activity (Rattus norvegicus [4]): inactive; Ki [5]: 30 nM; Activity [6]: 25% |
| CCCOc1ccc(NC(=O)ON=C(C)C)cc1 | 210 | – |
| Cc1nc(-c2ccccc2)c(-c2ccccc2)n1CCCCCCNC(=O)Oc1ccccc1F | 1.7 | – |
| CCCCCCCCCCCCOc1ccc(NC(=O)Oc2ccccc2F)cc1 | 13 | – |
| CCCCOc1ccc(NC(=O)ON=C(C)C)cc1 | 28 | – |
| CCCCCCOc1ccc(NC(=O)O/N=C/c2ccccc2)cc1 | 8 | – |
| CCCCCCCOc1ccc(NC(=O)O/N=C/c2ccccc2)cc1 | 8.6 | – |
| CCCCCCCCCCCOc1ccc(NC(=O)Oc2ccccc2)cc1 | 1 | – |
| CCCCCCCCOc1ccc(NC(=O)ON=C(C)C)cc1 | 2.4 | – |
| CCCCCCCCCOc1ccc(NC(=O)O/N=C/c2ccc(F)cc2)cc1 | 0.2 | – |
| CCCOc1ccc(NC(=O)O/N=C/c2ccc(F)cc2)cc1 | 13 | – |
| COc1ccc(NC(=O)O/N=C/c2ccccc2)cc1 | 290 | – |
| CCCCCCCCOc1ccc(NC(=O)O/N=C/c2ccccc2)cc1 | 0.43 | – |
| CCCCCCCCCCCOc1ccc(NC(=O)O/N=C/c2ccc(F)cc2)cc1 | 0.4 | – |
| CCCCCCCCCCOc1ccc(NC(=O)Oc2ccccc2F)cc1 | 9.2 | – |
| CCCCCCCCCCOc1ccc(NC(=O)O/N=C/c2cccnc2)cc1 | 0.35 | – |
| CCCCOc1ccc(NC(=O)O/N=C/c2cccnc2)cc1 | 14 | – |
| CCCCOc1ccc(CNC(=O)Oc2ccccc2F)cc1 | 9.2 | – |
| CCCCCCCCCCCCOc1ccc(NC(=O)O/N=C/c2cccnc2)cc1 | 0.35 | – |
| CCCCOc1ccc(CNC(=O)Oc2cccc(Cl)c2)cc1 | 12 | – |
| CCCCCCCCOc1ccc(NC(=O)O/N=C/c2ccc(F)cc2)cc1 | 0.27 | – |
| CCCCCCCOc1ccc(NC(=O)Oc2ccccc2)cc1 | 8.6 | – |
| CCCCCCCCCCCOc1ccc(NC(=O)O/N=C/c2ccccc2)cc1 | 0.45 | – |
| CCCCCOc1ccc(NC(=O)O/N=C/c2cccnc2)cc1 | 6.1 | – |
| CCCCCCCCOc1ccc(NC(=O)Oc2ccccc2)cc1 | 5.4 | – |

| SMILES | IC50 [1] [nM] | other results |
| --- | --- | --- |
| CCCCCCCCCCCOc1ccc(NC(=O)ON=C(C)C)cc1 | 4.9 | – |
| CCCCCCOc1ccc(NC(=O)O/N=C/c2ccc(F)cc2)cc1 | 6.5 | – |
| CCCCOc1ccc(C(CC)NC(=O)Oc2ccc(F)cc2F)cc1 (stereo not drawn) | 21 | – |
| CCCCOc1ccc(C(CC)NC(=O)Oc2ccccc2F)cc1 (stereo not drawn) | 7.7 | – |
| CCCCCCOc1ccc(NC(=O)Oc2ccccc2F)cc1 | 710 | – |
| CCCCCCCCCCOc1ccc(NC(=O)Oc2ccccc2)cc1 | 1.4 | – |
| CCCCOc1ccc(NC(=O)O/N=C/c2ccccc2)cc1 | 8.5 | – |
| CCCOc1ccc(NC(=O)O/N=C/c2cccnc2)cc1 | 29 | – |
| CCCCCCCOc1ccc(NC(=O)O/N=C/c2cccnc2)cc1 | 2.3 | – |
| CCCCOc1ccc(C(CC)NC(=O)Oc2ccc(OC)cc2)cc1 (stereo not drawn) | 12 | – |
| CCCCCCCCCOc1ccc(NC(=O)O/N=C/c2ccccc2)cc1 | 0.25 | – |
| CCCCCCCCCCOc1ccc(NC(=O)ON=C(C)C)cc1 | 2.2 | – |
| CCCCCCCCOc1ccc(NC(=O)O/N=C/c2cccnc2)cc1 | 0.8 | – |
| CCCCOc1ccc(NC(=O)Oc2ccc(F)cc2)cc1 | 120 | – |
| CCOc1ccc(NC(=O)O/N=C/c2ccccc2)cc1 | 81 | – |
| CCCCCCOc1ccc(NC(=O)Oc2ccccc2)cc1 | 31 | – |
| CCOc1ccc(NC(=O)ON=C(C)C)cc1 | 730 | – |
| CCOc1ccc(NC(=O)O/N=C/c2cccnc2)cc1 | 150 | – |
| CCCCCCCOc1ccc(NC(=O)O/N=C/c2ccc(F)cc2)cc1 | 2.3 | – |
| CCCCCCCCCCCOc1ccc(NC(=O)O/N=C/c2cccnc2)cc1 | 0.15 | – |
| CCCCOc1ccc(NC(=O)Oc2ccccc2F)cc1 | 340 | – |
| CCCCCCCCCCCCOc1ccc(NC(=O)O/N=C/c2ccccc2)cc1 | 2.4 | – |
| CCCCCCCCCCOc1ccc(NC(=O)O/N=C/c2ccc(F)cc2)cc1 | 0.25 | – |
| CCCCCCCCCCCCOc1ccc(NC(=O)O/N=C/c2ccc(F)cc2)cc1 | 2.1 | – |
| CCCCCCCCCCCCOc1ccc(NC(=O)ON=C(C)C)cc1 | 5 | – |
| CCCCOc1ccc(CNC(=O)Oc2cccc(C(F)(F)F)c2)cc1 | 40 | – |
